According to patent publication US8962263B2, “Methods and compositions for detecting the activation state of multiple proteins in single cells” (The Board of Trustees of the Leland Stanford Junior …, priority 2001, dated 2015):

What was measured:
Syk = assay: sICAM-2 induced Syk phosphorylation (phospho-tyrosine based ELISA, chemical genetic approach); type: cell-based; conditions: sICAM-2 stimulus
Source text: (§1) E) depicts that LFA-1, induced phosphorylation of Pyk2, and Syk is dependent on PKC. We screened for the inhibition of sICAM-2, induced Pyk2, and Syk phosphorylation by chemical inhibitors to tyrosine kinases using a phospho-tyrosine based ELISA. Pyk2, phosphorylation was abrogated in the presence of PKC inhibitors bisindolymaleimide II (BIM II) and staurosporine (STP), in addition to tyrphostin A9, a specific Pyk2, inhibitor. a Pyk2, phosphorylation was also affected by inhibitors of phospholipase Cg (neomycin), inhibitors of Syk (piceatannol), and PKC inhibitor BIM I. Syk phosphorylation was completely abolished by inhibition of Pyk2, PLCg1, and strongly affected by PKC inhibitors. Thus, both Pyk2, and Syk phosphorylations were dependent on PKC activity, while Syk phosphorylation was additionally dependent on PLCg1, and Pyk2, activity. It was not possible to assess specific PKC isozymes by this method.
A chemical genetic approach was undertaken to determine the hierarchy of PKC, Pyk2, PLCg1, and Syk activities in response to sICAM-2, stimulus by verifying phosphorylation status of each kinase in the presence of respective chemical inhibitors. Inhibition of PKC with BIM II abrogated phosphorylation of Pyk2, PLCg1, and Syk. Inhibition of PLCg1, by neomycin abrogated phosphorylation of Syk, with no inhibition observed for Pyk2. […]

PLCg1 = assay: sICAM-2 induced PLCg1 phosphorylation (chemical genetic approach); type: cell-based; conditions: sICAM-2 stimulus
Source text: (§2) A chemical genetic approach was undertaken to determine the hierarchy of PKC, Pyk2, PLCg1, and Syk activities in response to sICAM-2, stimulus by verifying phosphorylation status of each kinase in the presence of respective chemical inhibitors. Inhibition of PKC with BIM II abrogated phosphorylation of Pyk2, PLCg1, and Syk. Inhibition of PLCg1, by neomycin abrogated phosphorylation of Syk, with no inhibition observed for Pyk2. […] Thus, the upstream signaling events from LFA-1, to Raf-1, appear to involve PKC/Pyk2/PLCg1/Syk. […] We are currently pursuing these complexes in a separate study.

Pyk2 = assay: sICAM-2 induced Pyk2 phosphorylation (phospho-tyrosine based ELISA, chemical genetic approach); type: cell-based; conditions: for phosphorylation of Pyk2: chemical genetic approach, sICAM-2 stimulus; for sICAM-2 induced Pyk2 phosphorylation: phospho-tyrosine based ELISA
Source text: as §1, §2

NIH3T3 = assay: staurosporine induced apoptosis in ICAM-2 transduced NIH3T3 (annexin-V binding, BrdU TUNEL); type: cell-based, murine
Description: A) Pharmacological inhibitors of PI3K abrogate ICAM-2's anti-apoptotic. ICAM-2, or vector transduced BaF3, cells were treated with staurosporine (1, μM) with (unfilled) or without (filled) the addition of 100, nM wortmannin for 24, hours (left bar graph). Apoptosis was determined by nuclear staining and fluorescence microscopy (left bar graph) and by annexin-V binding assay (right bar graph). The proportion of apoptotic cells in each culture without staurosporine was 8%+/−2. The percentage of apoptotic cells is expressed as the mean (bar)+SD of triplicate cultures. ICAM-2, 1CAM2-AC, or vector transduced NIH3T3, were treated with staurosporine ([…]) in the presence or absence of 10, μM LY294002, for 24, hours (right bar graph). DMSO vehicle served as negative control. The percentage of apoptotic cells is expressed as the mean (bar)+/−SD of triplicate cultures. B) Confocal images of PI3K and AKT localization in ICAM-2, (top) or vector control cells (bottom). C) Confocal images of ezrin and the p85, subunit of PI3K (green) localization in ICAM-2, (top) or vector control cells (bottom).
A) The anti-apoptotic effect of ICAM-2, is both wortmannin and LY294002, sensitive. ICAM-2, or vector transduced BaF3, cells were treated with staurosporine (1, μM) with (unfilled) or without (filled) the addition of 100, nM wortmannin for 24 hours. Apoptosis was determined by nuclear staining and fluorescence microscopy (left bar graph) and by annexin-V binding assay (right bar graph). The proportion of apoptotic cells in each culture without staurosporine was 8%±2. The percentage of apoptotic cells is expressed as the mean (bar)±SD of triplicate cultures. ICAM-2, ICAM2-ΔC, or vector transduced NIH3T3, were treated with staurosporine (1, μM) in the presence or absence of 10, μM LY294002, for 24, hours. DMSO vehicle served as negative control. The percentage of apoptotic cells is expressed as the mean (bar)±SD of triplicate cultures. B) ICAM-2, expressing NIH3T3, cells are sensitive to apoptosis in the presence of PI3K inhibitor LY294002. BrdU TUNEL assay was performed in staurosporine (1, μM) or LY294002, (10, μM) treated ICAM-2, ICAM2-ΔC, and control vector transduced NIH3T3, cells. The percentage of apoptotic cells is expressed as the mean (bar)±SD of triplicate cultures.
Apoptosis was determined either by counting pyknotic nuclei, annexin-V binding by flow cytometry, or TUNEL BrdU staining by flow cytometry as indicated. Apoptosis was induced either by staurosporine (1 μm), treatment with anti-mouse Fas (5 μq/ml Santa Cruz Biotechnology (SCB), […] Fas (5 μg/ml Jo2 Biomed) or anti-human Fas (10 ng/ml CH11 Kamiya Biomedical) as indicated in appropriate experiment, IL-3 withdrawal-(24 hrs) or as indicated. For pyknolic nuclei count, NIH3T3 cells were grown on glass coverslips and assayed for apoptosis. Suspension cells were analyzed by nuclear staining with 25 μM acridine orange/25 μm ethidium bromide or 5 μg/ml Hoechst 33342 (Molecular Probes, Eugene, Oreg.). Apoptosis was identified by the presence of characteristic pyknotic nuclei as described (Jacobson and Raff, 1995). At least 5 individual fields were photographed and counted using a Zeiss axioscope fluorescence microscope. For the survival assay 10^6 NIH3T3 cells were plated in 10 cm dishes and incubated overnight at 37° C. The cells were treated with 1 μM staurosporine for 24 hours. The cells were washed and cultured for 24 hours in complete medium. The cells were trypsinized and viable cells counted following trypan blue staining. Untreated cells were counted at the time of treatment. % survival represents (number of viable cells post-treatment)/(number of viable cells pretreatment). FACS based annexin-V-FITC/PI staining was done as described (PharMingen). TUNEL assay was performed as described by manufacturer of Apoptosis BrdU kit (Promega). […]

ezrin = assay: phosphotyrosine-protein based elisa for ezrin tyrosine phosphorylation upon ICAM-2 ligation; type: cell-based, human; conditions: Jurkat cells
Description: A) Expression levels of ICAM-2, vary across cell lines of different origins. Quantitative flow cytometry analysis was performed to assess the number of ICAM-2 surface molecules across transformed and untransformed fibroblasts, lymphocytes of T-cell and different B-cell differentiation states and myeloid lineages (see Material and Methods for elaboration). The number of surface molecules/cell is expressed as the mean (bar)+/−SD of triplicate experiments. B) Crosslinking of endogenous ICAM-2, induces ezrin tyrosine phosphorylation and enhanced ICAM-2, interaction. Jurkat cells were crosslinked for ICAM-2 using monoclonal antibody for the indicated times and subjected to immunoprecipitation/immunoblotting as indicated. C) Inhibition of ezrin phosphotyrosine by chemical inhibitors of src and Rho-dependent kinases. D) Ezrin phosphorylation and enhanced interaction with the p85, subunit of PI3K as a function of ICAM-2. Determined as described above. E) PDK-1, activity as a function of ICAM-2, ligation, as described above). F) PI3K and AKT localize to the membrane as a function of ICAM-2, ligation. Membrane/cytosolic fractionation was performed on ICAM-2, ligated Jurkat cells as a function of time and subjected to immunoblotting for PI3K and AKT.
In order to identify upstream kineses capable of tyrosine phosphorylating ezrin as a function of ICAM-2 ligation, we developed a phosphotyrosine-protein based elisa to screen for the inhibition of ezrin tyrosine phosphorylation in vivo by various known inhibitors of protein kineses (Perez and Nolan, manuscript in preparation). […] Given the design of the screen to detect tyrosine residue phosphorylation, we speculate that activation of Rho-dependent processes may be a prerequisite for ezrin to be tyrosine phosphorylated by src (elaborated below).

HL60 cells = assay: FACS based effector-target killing assay, human PBMC against CFSE labeled HL60 cells; type: cell-based; conditions: 10 μg/ml, 50:1 E:T ratio, 4 hrs
Description: A) PBMC were either treated with ICAM-2, (10 μg/ml) in the presence of IL-2, for 12, hr and then incubated with CFSE labeled target HL60, cells at a 50:1, E:T ratio for 4, hrs. Remaining HL60, cells were quantified by flow cytometry. B) PBMC were treated with IL-2, (100, U/ml, 12, hrs) and treated with ICAM-1,-2, or 3, FC proteins (10, μg/ml) and used in a cytotoxicity assay as described above. Results are representative of 4, independent experiments.
(§3) Target cell lysis was measured by flow cytoemtric based detection of CFSE labeled HL60 cells. HL60 cells were labeled with 1 μg of CFSE (30 min, 37° C.). Targets were washed twice and mock treated, IL-2 activated (100 U/ml), CD3/CD28 activated (1 μg/ml), or treated with ICAM2 beads or soluble ICAM-1, -2, or 3 (10 μg/ml, 30 min, 37° C.) before plating at 10^4 target cells/well of a 96-well round bottom plate. CTLs were added at 50:1, 25:1, and 12.5:1 E:T ratio, and incubated at 37° C. for 4 hrs. Cells were then processed for multiparameter flow cytometry and intracellular perforin stain. Percent specific lysis was calculated by the following equation: % specific lysis=100-100×(experimental HL60 count/total control HL60 count). HL60 counts were detectable by the CFSE fluorescence. Percent perforin was calculated by the following equation: % perforin=100×[(experimental perforin MFI−isotype mAb MFI)/(total perforin MFI−isotype mAb MFI)]. MFI refers to mean fluorescent intensity of flow cytoemtric based intracellular detection. Cell conjugates were determined by flow cytometry as described (Morgan et al., 2001). Chemical inhibition was done at 10 μM of indicated compound (30 min, 37° C.) prior to stimulation as indicated. All experiments were performed in triplicate.

[1] = test system: CD56 CD8 cytotoxic lymphocyte subsets; assay: intracellular perforin and granzyme-A in CD56CD8 subsets of human PBMC by flow cytometry; type: cell-based; conditions: for granzyme-A negative population: CD56+CD8high population; for changes in intracellular perforin or granzyme-A: CD56+CD8low population; for frequency of the perforin negative population: CD56+CD8med population
Description: IL-2, activated PBMC (shown in A-1 and A-3) were mock-treated (IgG) (A-2) , ICAM-1, (A2), ICAM-2, (A4), or ICAM-3, (A4) treated (10, μg/ml of FC fusion protein) for 12 hrs prior to incubation with target HL60, cells at a 50:1, E:T ratio for 4, hrs. Cells were then prepared for flow cytometry with CD8-CY5PE, CD56-PE surface stains, and perforin-CY5, and granzyme-A-FITC intracellular stains. Cells were gated for CD56^+CD8^low, CD56^+CD8^med, CD56^+, CD8^high, CD56^−, CD8^−, , CD56^−-CD8^high, populations as shown in A-1 and A-3 and population frequencies within appropriate gate. […] Results are representative of 3 independent experiments and were similar at 25:1 and 12.5:1 E:T ratios (data not shown). Manual calibration was performed. […] Perforin percentage was calculated from the following equation where MFI equals mean fluorescent intensity: 100×[(MFIexperimental−MFIisotype mAb)/(MFIcontrol−MFlisotype mAb)] Unstimulated cells were used as control.
as §3

Molecule: CN1CCCC1CCn1cc(C2=C(c3c[nH]c4ccccc34)C(=O)NC2=O)c2ccccc21 (stereo not drawn) [bisindolymaleimide II]
- phosphorylation of Syk (Syk): abrogated
- phosphorylation of PLCg1 (PLCg1): abrogated
- phosphorylation of Pyk2 (Pyk2): abrogated
- sICAM-2 induced Pyk2 phosphorylation (Pyk2): abrogated
- ICAM-2 induced survival signal (NIH3T3; PKC isozyme inhibitors, system not specified): did not abrogate
- effect on ICAM-2 anti-apoptotic effect, other kinase inhibitors (NIH3T3; cell type not stated, data not shown): not abrogated
- tyrosine phosphorylation of ezrin (ezrin): minor affects

Molecule: neomycin
- phosphorylation of Syk (Syk): abrogated
- phosphorylation of Pyk2 (Pyk2): no inhibition
- sICAM-2 induced Pyk2 phosphorylation (Pyk2): affected

B1: ICAM-3: recombinant human ICAM3-FC, soluble LFA-1 ligand (protein)
chain: QEFLLRVEPQNPVLSAGGSLFVNCSTDCPSSEKIALETSLSKELVASGMGWAAFNLSNVTGNSRILCSVYCNGSQITGSSNITVYRLPERVELAPLPPWQPVGQNFTLRCQVEDGSPRTSLTVVLLRWEEELSRQPAVEEPAEVTATVLASRDDHGAPFSCRTELDMQPQGLGLFVNTSAPRQLRTFVLPVTPPRLVAPRFLEVETSWPVDCTLDGLFPASEAQVYLALGDQMLNATVMNHGDTLTATATATARADQEGAREIVCNVTLGGERREARENLTVFSFLGPIVNLSEPTAHEGSTVTVSCMAGARVQVTLDGVPAAAPGQPAQLQLNATESDDGRSFFCSATLEVDGEFLHRNSSVQLRVLYGPKIDRATCPQHLKWKDKTRHVLQCQARGNPYPELRCLKEGSSREVPVGIPFFVNVTHNGTYQCQASSSRGKYTLVVVMDIEAGSSH
modifications: left off: a dimerising Fc or GST
notes: recombinant human ICAM3-FC, soluble LFA-1 ligand
- target cell lysis of HL60 cells (HL60 cells): did not initiate as potent a cytotoxic cell response
- granzyme-A negative population [1]: 3.07%
- changes in intracellular perforin or granzyme-A [1]: no significant changes
- frequency of the perforin negative population [1]: 19.8%

B2: ICAM-1: recombinant human ICAM-1-FC, soluble LFA-1 ligand (protein)
chain: QTSVSPSKVILPRGGSVLVTCSTSCDQPKLLGIETPLPKKELLLPGNNRKVYELSNVQEDSQPMCYSNCPDGQSTAKTFLTVYWTPERVELAPLPSWQPVGKNLTLRCQVEGGAPRANLTVVLLRGEKELKREPAVGEPAEVTTTVLVRRDHHGANFSCRTELDLRPQGLELFENTSAPYQLQTFVLPATPPQLVSPRVLEVDTQGTVVCSLDGLFPVSEAQVHLALGDQRLNPTVTYGNDSFSAKASVSVTAEDEGTQRLTCAVILGNQSQETLQTVTIYSFPAPNVILTKPEVSEGTEVTVKCEAHPRAKVTLNGVPAQPLGPRAQLLLKATPEDNGRSFSCSATLEVAGQLIHKNQTRELRVLYGPRLDERDCPGNWTWPENSQQTPMCQAWGNPLPELKCLKDGTFPLPIGESVTVTRDLEGTYLCRARSTQGEVTRKVTVNVLSPRYE
modifications: left off: a dimerising Fc or GST
notes: recombinant human ICAM-1-FC, soluble LFA-1 ligand
- target cell lysis of HL60 cells (HL60 cells): did not initiate as potent a cytotoxic cell response
- granzyme-A negative population [1]: 4.12%
- changes in intracellular perforin or granzyme-A [1]: no significant changes
- frequency of the perforin negative population [1]: 13.7%
